This note sets out measurements from US6716838B1, “Substituted polycyclic aryl and heteroaryl uracils as anticoagulative agents” (Pharmacia Corporation, priority 1999, dated 2004).

Common to all, as to type: biochemical
Assay [1] has as its target T1, recombinant soluble tissue factor and recombinant human factor VIIa (Homo sapiens, UniProt P08709).
T1 construct: purchased American Diagnostica, Greenwich Conn; (factor VIIa); soluble TF made in house; host or cells: E. coli (soluble TF only)
As to the kind of experiment: TF-VIIa Assay. To be noted: chromogenic substrate, 60 min at room temperature, pH 8.0. Here is the method:
In this assay 100 nM recombinant soluble tissue factor and 2 nM recombinant human factor VIIa are added to a 96-well assay plate containing 0.4 mM of the substrate, N-Methylsulfonyl-D-phe-gly-arg-p-nitroaniline and either inhibitor or buffer (5 mM CaCl2, 50 mM Tris-HCl, pH 8.0, 100 mM NaCl, 0.1% BSA). The reaction, in a final volume of 100 ul is measured immediately at 405 nm to determine background absorbance. The plate is incubated at room temperature for 60 min, at which time the rate of hydrolysis of the substrate is measured by monitoring the reaction at 405 nm for the release of p-nitroaniline. Percent inhibition of TF-VIIa activity is calculated from OD405 nm value from the experimental and control sample.
(§1) Recombinant soluble TF, consisting of amino acids 1-219 of the mature protein sequence was expressed in E. coli and purified using a Mono Q Sepharose FPLC. Recombinant human VIIa was purchased from American Diagnostica, Greenwich Conn. and chromogenic substrate N-Methylsulfonyl-D-phe-gly-arg-p-nitroaniline was prepared by American Peptide Company, Inc., Sunnyvale, Calif. Factor Xa was obtained from Enzyme Research Laboratories, South Bend Ind., thrombin from Calbiochem, La Jolla, Calif., and trypsin and L-BAPNA from Sigma, St Louis Mo. The chromogenic substrates S-2765 and S-2238 were purchased from Chromogenix, Sweden.

Assay [2] addresses T2, trypsin, type IX from porcine pancreas (Sus scrofa, UniProt P00761).
T2 construct: purchased Sigma, St Louis Mo. type IX; host or cells: porcine pancreas
Nature of the assay: Trypsin Assay. To be noted: substrate L-BAPNA, 60 min at room temperature, pH 8.0; read-out: Trypsin II IC50. The method, then:
5 ug/ml trypsin, type IX from porcine pancreas and 0.375 mM N-α-Benzoyl-L-arginine-p-nitroanilide (LBAPNA) are added to a 96-well assay plate containing either inhibitor or buffer (50 mM Tris-HCl, pH 8.0, 100 mM NaCl, 0.1% BSA). The reactions, in a final volume of 100 ul are measured immediately at 405 nm to determine background absorbance. The plate is incubated at room temperature for 60 min, at which time the rate of hydrolysis of the substrate is measured by monitoring the reaction at 405 nm for the release of p-nitroaniline. Percent inhibition of trypsin activity is calculated from OD405 nm value from the experimental and control sample.
as §1

In the next assay the target is human thrombin (Homo sapiens, UniProt P00734). As to the kind of experiment: Thrombin Assay. Conditions: chromogenic substrate, 60 min at room temperature, pH 8.0; read-out: Thrombin II IC50. The method, then:
(§2) 0.28 nM human thrombin and 0.06 mM H-D-Phenylalanyl-L-pipecolyl-L-argioine-p-nitroaniline dihydrochloride are added to a 96-well assay plate containing either inhibitor or buffer (50 mM Tris-HCl, pH 8.0, 100 mM NaCl, 0.1% BSA). The reaction, in a final volume of 100 ul is measured immediately at 405 nm to determine background absorbance. The plate is incubated at room temperature for 60 min, at which time the rate of hydrolysis of the substrate is measured by monitoring the reaction at 405 nm for the release of p-nitroaniline. Percent inhibition of thrombin activity is calculated from OD405 nm value from the experimental and control sample.
as §1

The target in a further assay is T3, human factor Xa (Homo sapiens, UniProt P00742).
T3 construct: leads from XII to XIIa to XIa to IXa and to the conversion of X to Xa; purchased Enzyme Research Laboratories, South Bend Ind
T3 sequence (P00742 235-488 limits assumed): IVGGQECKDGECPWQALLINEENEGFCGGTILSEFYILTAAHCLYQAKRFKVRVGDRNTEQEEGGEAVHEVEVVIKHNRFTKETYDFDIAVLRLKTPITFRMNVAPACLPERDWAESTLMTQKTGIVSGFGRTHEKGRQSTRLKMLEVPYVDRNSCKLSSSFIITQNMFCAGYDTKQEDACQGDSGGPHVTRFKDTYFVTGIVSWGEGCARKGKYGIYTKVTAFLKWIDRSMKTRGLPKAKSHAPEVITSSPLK
T3 sequence (P00742 41-179 limits assumed): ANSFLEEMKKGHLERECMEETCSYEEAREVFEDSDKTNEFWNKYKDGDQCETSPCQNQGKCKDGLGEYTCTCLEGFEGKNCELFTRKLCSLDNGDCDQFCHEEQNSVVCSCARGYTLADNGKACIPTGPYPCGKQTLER
As to the kind of experiment: Xa Assay. Conditions: substrate S-2765, 60 min at room temperature, pH 8.0. Here is the method: as §2, with “0.3 nM” for “0.28 nM”, “human factor Xa” for “human thrombin”, “and 0.15” for “and 0.06”, “mM N-α-Benzyloxycarbonyl-D-arginyl-L-glycyl-L-arginine-p-nitroaniline-dihydrochloride (S-2765)” for “mM H-D-Phenylalanyl-L-pipecolyl-L-argioine-p-nitroaniline dihydrochloride”, “of Xa” for “of thrombin”
as §1

T2 sequence (P00761 9-231): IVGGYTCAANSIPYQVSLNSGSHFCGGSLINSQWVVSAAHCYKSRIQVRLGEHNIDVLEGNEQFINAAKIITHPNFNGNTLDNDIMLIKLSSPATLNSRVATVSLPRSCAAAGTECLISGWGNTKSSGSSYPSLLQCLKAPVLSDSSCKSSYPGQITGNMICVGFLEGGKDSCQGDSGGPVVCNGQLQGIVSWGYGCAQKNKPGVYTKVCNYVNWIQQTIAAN
T1 sequence (P08709 213-466 limits assumed): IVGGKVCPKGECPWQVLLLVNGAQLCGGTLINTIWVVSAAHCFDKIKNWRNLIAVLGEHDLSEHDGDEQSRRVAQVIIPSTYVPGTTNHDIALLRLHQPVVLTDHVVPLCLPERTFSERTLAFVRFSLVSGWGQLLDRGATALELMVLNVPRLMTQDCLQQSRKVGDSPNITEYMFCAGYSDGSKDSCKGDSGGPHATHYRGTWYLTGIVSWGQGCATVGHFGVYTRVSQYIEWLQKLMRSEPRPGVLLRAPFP
T1 sequence (P08709 61-212 limits assumed): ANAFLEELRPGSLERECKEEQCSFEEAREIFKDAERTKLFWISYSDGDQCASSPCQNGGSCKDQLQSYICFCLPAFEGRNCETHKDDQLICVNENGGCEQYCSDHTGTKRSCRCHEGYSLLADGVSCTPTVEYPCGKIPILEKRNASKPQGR
T1 sequence (P13726 33-251 partner limits assumed): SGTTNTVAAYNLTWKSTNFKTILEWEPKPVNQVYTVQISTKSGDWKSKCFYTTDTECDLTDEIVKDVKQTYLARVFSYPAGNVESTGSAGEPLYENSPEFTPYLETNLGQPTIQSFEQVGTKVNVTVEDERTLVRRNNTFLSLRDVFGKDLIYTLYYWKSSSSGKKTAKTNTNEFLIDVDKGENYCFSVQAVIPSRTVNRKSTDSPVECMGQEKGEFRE

On to `N=C(N)c1ccc(CNC(=O)Cn2c(=O)c(NS(=O)(=O)Cc3ccccc3)cn(Cc3ccccc3)c2=O)cc1` [Example 1], for which the IC50 (usually the concentration that gives 50% inhibition) in assay [1] was over 100 µM; in assay [2] it was 0.4 µM; on human thrombin, 13 µM; against human factor Xa it was 25.6 µM.

On to `N=C(N)NCCC[C@H](NC(=O)Cn1c(=O)c(NS(=O)(=O)Cc2ccccc2)cn(Cc2ccccc2)c1=O)C(=O)c1nccs1` [Example 2], for which the IC50 in assay [1] was determined as 12.9 µM; in assay [2], 0.2 µM; at human thrombin it was 0.3 µM; against human factor Xa it was 0.2 µM.
